A short description of data set [1]: Agonist activity at GPR119 receptor in hamster HIT-T15 cells assessed as intracellular cAMP level. The class given is cell-based. Conditions: Cricetinae.
The next data set has as its system HIT-T15. As to the kind of experiment: Agonist activity at GPR119 receptor in hamster HIT-T15 cells assessed as intracellular cAMP level relative to AR-231,453. Format: cell-based. Conditions: Cricetinae.
A further data set has as its target Cytochrome P450 3A4 (Homo sapiens, UniProt P08684). The data set is described as follows: Inhibition of CYP3A4 (unknown origin). The class given is ADME.
Data set [2] in a line: Kinetic solubility of the compound at pH 6.5. The class given is physicochemical. Conditions: buffer, read-out: Kinetic_solubility.
A further data set deals with Cytochrome P450 2C9 (Homo sapiens, UniProt P11712). As to the kind of experiment: Inhibition of CYP2C9 (unknown origin). Format: ADME.
Sequence of Cytochrome P450 2C9 (P11712 whole entry): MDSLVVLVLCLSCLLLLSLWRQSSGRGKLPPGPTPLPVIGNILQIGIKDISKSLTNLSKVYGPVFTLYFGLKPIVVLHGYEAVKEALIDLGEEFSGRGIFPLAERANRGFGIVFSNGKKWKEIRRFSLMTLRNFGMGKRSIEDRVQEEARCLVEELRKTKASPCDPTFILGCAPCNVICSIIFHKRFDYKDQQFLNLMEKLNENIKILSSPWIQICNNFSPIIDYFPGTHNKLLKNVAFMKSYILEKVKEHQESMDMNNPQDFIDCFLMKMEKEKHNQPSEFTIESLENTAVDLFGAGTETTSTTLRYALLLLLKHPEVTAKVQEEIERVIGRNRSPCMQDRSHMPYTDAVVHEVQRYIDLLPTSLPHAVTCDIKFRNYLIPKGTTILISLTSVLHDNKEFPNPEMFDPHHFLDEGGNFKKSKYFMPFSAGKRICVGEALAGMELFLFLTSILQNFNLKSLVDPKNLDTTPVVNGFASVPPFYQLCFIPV
In the next data set the target is hERG (KCNH2) (Homo sapiens, UniProt Q12809). As to the kind of experiment: Inhibition of human ERG channel.
Sequence of hERG (KCNH2) (Q12809 whole entry): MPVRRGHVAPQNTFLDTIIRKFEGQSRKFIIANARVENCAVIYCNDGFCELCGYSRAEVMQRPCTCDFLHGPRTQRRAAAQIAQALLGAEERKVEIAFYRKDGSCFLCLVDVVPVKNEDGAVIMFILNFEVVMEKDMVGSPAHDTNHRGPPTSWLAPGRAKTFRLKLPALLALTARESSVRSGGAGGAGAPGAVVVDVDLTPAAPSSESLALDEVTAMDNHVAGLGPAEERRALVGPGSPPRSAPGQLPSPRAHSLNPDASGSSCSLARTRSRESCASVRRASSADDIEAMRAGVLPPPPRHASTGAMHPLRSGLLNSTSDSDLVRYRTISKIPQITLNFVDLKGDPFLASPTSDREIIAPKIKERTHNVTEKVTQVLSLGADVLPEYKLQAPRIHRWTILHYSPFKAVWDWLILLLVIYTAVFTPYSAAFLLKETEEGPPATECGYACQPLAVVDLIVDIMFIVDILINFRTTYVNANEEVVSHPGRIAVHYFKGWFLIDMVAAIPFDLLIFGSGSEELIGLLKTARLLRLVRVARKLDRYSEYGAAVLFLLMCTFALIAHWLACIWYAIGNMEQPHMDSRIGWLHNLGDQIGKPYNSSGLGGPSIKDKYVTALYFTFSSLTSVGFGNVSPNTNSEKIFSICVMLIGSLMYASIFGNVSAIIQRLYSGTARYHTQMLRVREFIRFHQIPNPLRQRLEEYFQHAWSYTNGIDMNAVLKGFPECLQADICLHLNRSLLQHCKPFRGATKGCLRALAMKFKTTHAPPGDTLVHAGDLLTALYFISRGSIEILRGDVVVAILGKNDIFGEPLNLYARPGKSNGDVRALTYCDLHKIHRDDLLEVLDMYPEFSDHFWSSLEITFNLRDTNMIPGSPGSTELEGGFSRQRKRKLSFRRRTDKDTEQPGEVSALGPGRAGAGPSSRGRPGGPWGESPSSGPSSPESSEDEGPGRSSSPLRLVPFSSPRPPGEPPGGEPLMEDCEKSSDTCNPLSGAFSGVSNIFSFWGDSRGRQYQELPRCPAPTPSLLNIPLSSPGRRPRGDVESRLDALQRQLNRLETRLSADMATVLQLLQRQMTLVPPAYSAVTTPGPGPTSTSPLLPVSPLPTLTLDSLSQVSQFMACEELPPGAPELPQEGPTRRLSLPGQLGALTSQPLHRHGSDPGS
Data set [3] can be described thus: Clearance in mouse liver microsomes. Format: ADME, Microsome. Conditions: read-out: CLH.
Another data set concerns Mus musculus. As to the kind of experiment: Antihyperglycemic activity in C57Bl/6J mouse assessed as reduction of AUC (0 to 120 mins) of glucose excursion at 30 mg/kg, po administered 2 hrs before glucose challenge. The class given is functional.
Data set [4] is described as follows: Cmax in mouse at 10 mg/kg, po. The class given is ADME, organism-based. Further details: dose 10 mg/kg, route oral. Conditions: in vivo.
A short description of data set [5]: Tmax in mouse at 10 mg/kg, po. Conditions: in vivo. Further details: dose 10 mg/kg, route oral. Format: ADME, organism-based.
A further data set deals with Hepatocyte. The data set is described as follows: Metabolic stability of the compound in mouse hepatocytes assessed as glutathione adduct formation. Format: ADME, cell-based.
The nature of data set [6]: Volume of distribution in mouse at 5 mg/kg, iv. Conditions: in vivo. The class given is ADME, organism-based. On the set-up: dose 5 mg/kg, route intravenous.
Data set [7] in a line: AUC in mouse at 5 mg/kg, iv. Format: ADME, organism-based. Further details: dose 5 mg/kg, route intravenous. Conditions: plasma.
Data set [8] is described as follows: Clearance in mouse at 5 mg/kg, iv. Format: ADME, organism-based. Further details: dose 5 mg/kg, route intravenous. Conditions: in vivo.
Data set [9] can be described thus: Oral bioavailability in mouse at 10 mg/kg. The class given is ADME, organism-based. Conditions: in vivo.
The nature of data set [10]: AUC in mouse at 10 mg/kg, po. The class given is ADME, organism-based. On the set-up: dose 10 mg/kg, route oral. Conditions: plasma.
Data set [11] can be described thus: Half life in mouse at 5 mg/kg, iv. Conditions: in vivo. The class given is ADME, organism-based. Further details: dose 5 mg/kg, route intravenous.

In brackets after ≈: the same amount, converted by molar mass. Activity calls are given as the source filed them. The rule behind the calls is not given here.

Sequence of Cytochrome P450 3A4 (P08684 whole entry): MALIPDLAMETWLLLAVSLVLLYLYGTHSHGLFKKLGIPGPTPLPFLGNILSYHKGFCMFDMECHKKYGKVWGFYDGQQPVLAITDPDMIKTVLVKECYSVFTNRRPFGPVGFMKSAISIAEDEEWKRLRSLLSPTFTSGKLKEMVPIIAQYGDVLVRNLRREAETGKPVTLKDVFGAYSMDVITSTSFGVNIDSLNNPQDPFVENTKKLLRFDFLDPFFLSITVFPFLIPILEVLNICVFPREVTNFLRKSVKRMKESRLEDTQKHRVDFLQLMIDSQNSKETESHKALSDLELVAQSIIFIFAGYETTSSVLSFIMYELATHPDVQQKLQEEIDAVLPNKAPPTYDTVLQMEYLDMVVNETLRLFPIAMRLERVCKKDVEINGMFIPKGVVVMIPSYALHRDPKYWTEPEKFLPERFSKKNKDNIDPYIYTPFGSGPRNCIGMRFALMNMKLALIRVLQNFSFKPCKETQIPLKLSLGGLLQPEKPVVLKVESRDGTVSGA

A word on the EC50: it is the concentration that produces a half-maximal response. By Emax is commonly meant the maximal effect, on the per cent scale that the assay sets. Consider `CS(=O)(=O)c1ccc(Oc2ncnc3c2cnn3C2CCN(Cc3ccccc3)CC2)cc1`, for which the concentration for a half-maximal effect (EC50) in data set [1] amounted to 580 nM. Also, in the data set on HIT-T15, the Emax is 87%.

Take `CCOC(=O)N1CCC(n2ncc3c(Oc4ccc(S(C)(=O)=O)cc4)ncnc32)CC1`: the EC50 in data set [1] turned out to be 650 nM. Also, the Emax in the data set on HIT-T15 was found to be 81%.

Broadly, the IC50 is the concentration at which inhibition is half-maximal. What is called IC20 is the concentration needed for an effect of 20%. Regarding `CS(=O)(=O)c1ccc(Oc2ncnc3c2cnn3C2CCN(Cc3ccc(C(F)(F)F)cc3)CC2)cc1`, the IC50 was 1800 nM at Cytochrome P450 3A4 and above 6000 nM on Cytochrome P450 2C9. For the same compound, the EC50 in [1] came to 36 nM. The solubility kinetic in [2] is below 1 µg/mL. The 20% effect level against hERG (KCNH2) (IC20) was put at 200 nM. Also, in data set [3], the microsomal CLint was 114 µL/min/mg. In addition, the Emax in the data set with HIT-T15 amounted to 59%.

For `CC(C)(C)OC(=O)N1CCC(n2ncc3c(Oc4ccc(S(C)(=O)=O)cc4)ncnc32)CC1`, the figures for the 50% inhibitory concentration (IC50) at Cytochrome P450 3A4 and on Cytochrome P450 2C9 were 3100 nM and above 3000 nM, respectively. The concentration for a half-maximal effect (EC50) in data set [1] is 43 nM. In addition, the solubility kinetic in data set [2] is below 1 µg/mL. Moreover, it took 2700 nM to reach the 20% level at hERG (KCNH2) (IC20). For the same compound, the microsomal CLint in [3] stood at 86 µL/min/mg. Also, in the data set on Mus musculus, the result was inactive. The Emax with HIT-T15 is 101%.

Turning to `CC(C)COC(=O)N1CCC(n2ncc3c(Oc4ccc(S(C)(=O)=O)cc4)ncnc32)CC1`, in data set [1], the EC50 worked out at 110 nM. In addition, in the data set on HIT-T15, the maximal response (Emax) turned out to be 84%.

Regarding `CC(C)CC(=O)N1CCC(n2ncc3c(Oc4ccc(S(C)(=O)=O)cc4)ncnc32)CC1`, the IC50 against Cytochrome P450 3A4 and against Cytochrome P450 2C9 was above 25000 nM throughout. For the same compound, in [1], the EC50 is 330 nM. In [2], the solubility kinetic is 32 µg/mL (≈ 69.9 µM). For the same compound, on hERG (KCNH2), it took 2700 nM to reach the 20% level (IC20). In addition, in data set [3], the microsomal CLint was 29 µL/min/mg. The Emax in the data set with HIT-T15 worked out at 59%.

For `CC(C)(C)OC(=O)N1CCC(n2ncc3c(Nc4ccc(S(C)(=O)=O)cc4F)ncnc32)CC1`, in data set [1], the concentration for a half-maximal effect (EC50) came out at 240 nM. Moreover, the solubility kinetic in data set [2] was 8 µg/mL (≈ 16.3 µM). Also, the IC50 against Cytochrome P450 2C9 is 900 nM. The compound further displayed an IC20 on hERG (KCNH2) of 2600 nM. Besides, in data set [3], the microsomal CLint is 70 µL/min/mg. Also, the maximal response (Emax) in the data set on HIT-T15 is 103%.

As for `CC(C)OC(=O)N1CCC(n2ncc3c(Nc4ccc(S(C)(=O)=O)cc4)ncnc32)CC1`, the EC50 in data set [1] was 5740 nM. Besides, the maximum response (Emax) with HIT-T15 was 92%.

Turning to `CC(C)(C)OC(=O)N1CCC(n2ncc3c(Nc4cc(F)c(F)cc4F)ncnc32)CC1`, in data set [1], the EC50 worked out at 530 nM. For the same compound, the Emax in the data set with HIT-T15 is 97%.

With `CS(=O)(=O)c1ccc(Oc2ncnc3c2cnn3C2CCN(Cc3ccc(Cl)cc3)CC2)cc1`, in data set [1], the concentration for a half-maximal effect (EC50) was 570 nM. Moreover, in the data set with HIT-T15, the Emax came out at 73%.

For the compound `CC(=O)c1ccc(Oc2ncnc3c2cnn3C2CCN(C(=O)OC(C)(C)C)CC2)cc1`, in data set [1], the EC50 came out at 160 nM. The maximal response (Emax) with HIT-T15 worked out at 83%.

Consider `CS(=O)(=O)c1ccc(Oc2ncnc3c2cnn3C2CCN(Cc3cccc(OC(F)(F)F)c3)CC2)cc1`, for which, in [1], the EC50 was determined as 120 nM. The Emax with HIT-T15 came out at 54%.

Take `CC(C)(C)OC(=O)N1CCC(n2ncc3c(Oc4ccc(C(F)(F)F)cc4)ncnc32)CC1`: in data set [1], the EC50 was above 25000 nM. In addition, the Emax in the data set with HIT-T15 worked out at 27%.

For the compound `CS(=O)(=O)c1ccc(Oc2ncnc3c2cnn3C2CCN(C(=O)CCc3ccccc3)CC2)cc1`, the 50% effective concentration (EC50) in [1] is 1000 nM. In the data set with HIT-T15, the maximal effect (Emax) is 94%.

`CC(C)(C)OC(=O)N1CCC(n2ncc3c(Oc4ccccc4C#N)ncnc32)CC1`: in [1], the concentration for a half-maximal effect (EC50) was 61 nM.

As to `CC(C)C(=O)N1CCC(n2ncc3c(Oc4ccc(S(C)(=O)=O)cc4)ncnc32)CC1`, the EC50 in data set [1] was determined as 990 nM. In addition, the maximal effect (Emax) in the data set with HIT-T15 was determined as 60%.

As to `CS(=O)(=O)c1ccc(Oc2ncnc3c2cnn3C2CCN(Cc3cccc(Cl)c3)CC2)cc1`, in [1], the 50% effective concentration (EC50) was 280 nM. Further, the Emax in the data set with HIT-T15 was found to be 83%.

Turning to `COc1cc(OC)cc(Oc2ncnc3c2cnn3C2CCN(C(=O)OC(C)(C)C)CC2)c1`, the EC50 in [1] worked out at 6400 nM. For the same compound, the maximum response (Emax) with HIT-T15 was determined as 34%.

Turning to `CC(C)(C)OC(=O)N1CCC(n2ncc3c(Oc4ccc(C#N)cc4)ncnc32)CC1`, in data set [1], the EC50 was 580 nM. The maximum response (Emax) with HIT-T15 was found to be 87%.

As to `CC(C)(C)OC(=O)N1CCC(n2ncc3c(Oc4ccccc4)ncnc32)CC1`, the EC50 in data set [1] was above 25000 nM. Besides, the Emax in the data set on HIT-T15 worked out at 30%.

Regarding `CC(C)(C)CC(=O)N1CCC(n2ncc3c(Oc4ccc(S(C)(=O)=O)cc4)ncnc32)CC1`, the concentration giving a half-maximal response (EC50) in [1] is 270 nM. Moreover, in the data set on HIT-T15, the maximal response (Emax) came out at 58%.

Consider `CS(=O)(=O)c1ccc(Nc2ncnc3c2cnn3C2CCN(Cc3ccccc3)CC2)cc1`, for which, in data set [1], the concentration for a half-maximal effect (EC50) was 19000 nM. The maximal effect (Emax) with HIT-T15 is 64%.

A word on the Cmax: it is the peak of the concentration-time curve. One may read the Tmax as the time at which the peak concentration occurs. What is called Vd is the apparent volume that relates the amount in the body to the concentration in plasma or blood. In general, AUC refers to concentration integrated over time. By clearance is commonly meant the volume of plasma or blood freed of the substance per unit of time. As a reminder, the bioavailability is the share of a dose that reaches the circulation, judged against a reference dose that is usually intravenous. By half-life is commonly meant how long it takes for the measured level to halve. Compound `CC(C)OC(=O)N1CCC(n2ncc3c(Oc4ccc(S(C)(=O)=O)cc4)ncnc32)CC1` displayed a Cmax in data set [4] of 13.2 µM. In addition, the half-inhibitory concentration (IC50) at Cytochrome P450 3A4 and at Cytochrome P450 2C9 was above 6000 nM in each case. For the same compound, the concentration for a half-maximal effect (EC50) in [1] came out at 150 nM. Further, the Tmax in data set [5] was found to be 4 h. In the data set on Hepatocyte, the Stability result is listed as “Unstable”. In addition, the distribution volume (Vd) in data set [6] was found to be 0.46 L/kg. The solubility kinetic in data set [2] is below 1 µg/mL. The results for the AUC in [7] and in data set [10] were 25300 ng·h/mL and 41300 ng·h/mL, respectively. The same compound showed an IC20 at hERG (KCNH2) of 500 nM. The microsomal CLint in data set [3] worked out at 85 µL/min/mg. This compound also displayed a clearance in [8] of 3.3 mL/min/kg. In data set [9], the bioavailability was 82%. For the same compound, the Activity with Mus musculus came out at 44%. Moreover, the maximal effect (Emax) in the data set on HIT-T15 was 92%. Also, the half-life in [11] was 1.6 h.

Turning to `CC(C)(C)OC(=O)N1CCC(n2ncc3c(Oc4ccccc4F)ncnc32)CC1`, the concentration for a half-maximal effect (EC50) in data set [1] was 190 nM. Also, the Emax with HIT-T15 was 107%.

Turning to `CC(C)(C)COC(=O)N1CCC(n2ncc3c(Oc4ccc(S(C)(=O)=O)cc4)ncnc32)CC1`, the concentration for a half-maximal effect (EC50) in data set [1] is 100 nM. Further, in the data set on HIT-T15, the maximal effect (Emax) came out at 93%.

As to `CS(=O)(=O)c1ccc(Oc2ncnc3c2cnn3C2CCN(Cc3ccc(F)cc3)CC2)cc1`, the EC50 in data set [1] is 200 nM. Moreover, the maximal effect (Emax) in the data set on HIT-T15 came to 69%.

With `CC(C)(C)OC(=O)N1CCC(n2ncc3c(Oc4cc(F)c(F)cc4F)ncnc32)CC1`, the EC50 in data set [1] was 88 nM. Also, in the data set with HIT-T15, the maximal effect (Emax) is 95%.

`CS(=O)(=O)c1ccc(Oc2ncnc3c2cnn3C2CCN(C(=O)OCC(Cl)(Cl)Cl)CC2)cc1`: the 50% effective concentration (EC50) in [1] is 18 nM. In the data set with HIT-T15, the Emax is 90%.

With `CC(C)(C)OC(=O)N1CCC(n2ncc3c(Oc4ccc(F)cc4)ncnc32)CC1`, the concentration for a half-maximal effect (EC50) in [1] is 540 nM. Further, the Emax with HIT-T15 worked out at 82%.

`CC(C)(C)OC(=O)N1CCC(n2ncc3c(Nc4ccc(S(C)(=O)=O)cc4)ncnc32)CC1`: the EC50 in [1] amounted to 1400 nM. Besides, the maximum response (Emax) with HIT-T15 stood at 105%.

With `CC(C)(C)OC(=O)N1CCC(n2ncc3c(Oc4cccc(C(C)(C)C)c4)ncnc32)CC1`, in data set [1], the EC50 is above 25000 nM. In the data set with HIT-T15, the Emax came out at 27%.

With `CC(C)(C)OC(=O)N1CCC(n2ncc3c(Oc4ccc(C(C)(C)C)cc4)ncnc32)CC1`, the concentration giving a half-maximal response (EC50) in data set [1] is above 25000 nM. In addition, the maximal effect (Emax) in the data set with HIT-T15 amounted to 13%.

Source of the values: ChEMBL document CHEMBL3112399, “Discovery of pyrazolo[3,4-d]pyrimidine derivatives as GPR119 agonists” (Bioorg Med Chem Lett, 2014).
